Measured values as given in ChEMBL document CHEMBL1150139, “Four new neuroprotective iridoid glycosides from Scrophularia buergeriana roots” (2002).

Tests used:
Type in all cases: functional
Cortical neurone [1] = assay: Neuroprotective activity against Sprague-Dawley rat cortical neurons assessed as glutamate-induced LDH release at 1 uM for 1 hr before glutamate challenge measured after 24 hrs by spectrophotometry
Cortical neurone [2] = assay: Neuroprotective activity against Sprague-Dawley rat cortical neurons assessed as glutamate-induced LDH release at 0.1 uM for 1 hr before glutamate challenge measured after 24 hrs by spectrophotometry
Cortical neurone [3] = assay: Neuroprotective activity against Sprague-Dawley rat cortical neurons assessed as glutamate-induced LDH release at 10 uM for 1 hr before glutamate challenge measured after 24 hrs by spectrophotometry

Compound	Activity (Cortical neurone [1]) [%]	Activity (Cortical neurone [2]) [%]	Activity (Cortical neurone [3]) [%]
COc1ccc(/C=C/C(=O)O[C@@]2(C)C[C@@H](O)[C@]3(O)C=CO[C@@H](O[C@@H]4O[C@H](CO)[C@@H](O)[C@H](O)[C@H]4O)[C@@H]32)cc1	61.8	54.9	58.9
COc1ccc(/C=C\C(=O)O[C@@]2(C)C[C@@H](O)[C@]3(O)C=CO[C@@H](O[C@@H]4O[C@H](CO)[C@@H](O)[C@H](O)[C@H]4O)[C@@H]32)cc1	48.2	40.7	49.6
COc1ccc(/C=C\C(=O)OC[C@H]2O[C@@H](O[C@@H]3OC=C[C@@]4(O)[C@H](O)C[C@](C)(O)[C@@H]34)[C@H](O)[C@@H](O)[C@@H]2O)cc1	47.6	33.3	46.6
COc1ccc(/C=C/C(=O)OC[C@H]2O[C@@H](O[C@@H]3OC=C[C@@]4(O)[C@H](O)C[C@](C)(O)[C@@H]34)[C@H](O)[C@@H](O)[C@@H]2O)cc1	60.9	39.1	60.3
N#Cc1cc2c(cc1[N+](=O)[O-])=NC(=O)C(=O)N=2	47.3	28.1	61.6
NC(CCCP(=O)(O)O)C(=O)O (racemic)	27.8	5.7	43.6
C[C@]12N[C@H](Cc3ccccc31)c1ccccc12.O=C(O)/C=C\C(=O)O [DIZOCILPINE MALEATE]	61.5	31.8	83.6
C[C@]1(O)C[C@@H](O)[C@]2(O)C=CO[C@@H](O[C@H]3O[C@H](CO)[C@@H](O)[C@H](O)[C@H]3O)[C@@H]21 [HARPAGIDE]	42.2	41.4	46.2
C[C@]1(OC(=O)/C=C/c2ccccc2)C[C@@H](O)[C@]2(O)C=CO[C@@H](O[C@@H]3O[C@H](CO)[C@@H](O)[C@H](O)[C@H]3O)[C@@H]21 [HARPAGOSIDE]	38.5	38.2	44.7
C[C@]1(OC(=O)/C=C\c2ccccc2)C[C@@H](O)[C@]2(O)C=CO[C@@H](O[C@@H]3O[C@H](CO)[C@@H](O)[C@H](O)[C@H]3O)[C@@H]21 [Z-harpagoside]	38.8	26.4	42.5
